Experimental data reported in patent US20100093613A1, “METHODS FOR IDENTIFYING AGENTS AND THEIR USE FOR THE PREVENTION OR STABILIZATION OF FIBROSIS” (priority 2007, published 2010).

Test system: Bronchial epithelial cells + Fibroblasts
Experiment: BioMAP BF4T system (IL-4 + TNF-α), scoring of readout parameters
Format: cell-based, human
Set-up: key: 1 = modulated in desired direction, 0 = not (−1 if opposite)
Conditions: for MMP-3 score / PAI-1 score: desired change decrease; for MMP-1 score / uPA score: desired change increase
Experimental: In the “BF4T” system, bronchial epithelial cells, usually primary human bronchial epithelial cells, are cultured with fibroblasts, usually primary human fibroblasts, in the presence of TNF-α and IL-4. In addition to the factors, stimuli of interest that may be included in the culture medium include TGF-β, IL-5, II-10, IL-9, Tryptase, GM-CSF, II-17, CD40L, Histamine, IgE stimulated Mast Cells, LTB4 stimulated neutrophils, and PBMC stimulated with LPS or SAg.
Human neonatal fibroblasts (HDFn) and normal human bronchial epithelial cells (BrEPI) are used. Human lung fibroblasts (adult or neonatal) could also be used. HDFn are cultured in DMEM/F12 (50/50) from Cellgro, supplemented with LSGS kit (from Cascade Biologics); fetal bovine serum, 2% v/v, hydrocortisone 1 μg/ml, human epidermal growth factor 10 ng/ml, basic fibroblast growth factor 3 ng/ml and heparin 10 μg/ml, and penicillin/streptomycin amphotericin B solution (PSA). BrEPI are cultured in supplemented BEBM medium (Cambrex) at 2×10^4/ml. BrEPI may also be cultured with Bronchial/Tracheal Epithelial Cell Serum-Free Growth Medium (Cell Applications, Inc.) or F12/DMEM supplemented with 10 μg/ml rhu-insulin, 10 μg/ml transferrin, 10 ng/ml epidermal growth factor (EGF), 1 μM ethanolamine, 25 μg/ml aprotinin, 25 μg/ml glucose, 1 μM phosphoethanolamine, 5 μM triiodothyronine, 50 nM selenium, 1 nM hydrocortisone, 1 nM progesterone, 5 μM forskolin, 10 μM heregulin β177-244, 5 μl/ml fibronectin, 4 μl/ml bovine pituitary extract and retinoid acid. HDFn are plated for assays at 3×10^4 cells/ml. After 2 days, media is replaced with BrEPI media containing 10^4 BrEPI cells and cultured for a further 2 days.
Upon reaching confluency, the test agent or buffer control is added and the following are applied: 5 ng/ml of IL-4 and 5 ng/ml TNF-α (BF4T). After another 24 hours incubation (37° C., 5% CO2) the cultures are evaluated for the following parameters: CD90, Keratin 8/18, Eotaxin-3, I-TAC, ICAM-1, EGFR, IL-1α, IL-8, MCP-1, MMP-9, MMP-1, MMP-3, PAI-1, TGF-β3, TIMP-2, uPA, tPA, CD87 and VCAM-1. Additional readouts of interest may include IP-10, Elafin/SKALP, Endothelin-1, Gro-a, CD119, IL-6, GM-CSF, IL-16, FGF, PDGF, CD44, E-cadherin, CD40, IL-15Ralpha, CD1d, CD80, CD86, TARC, eotaxin-1, CD95, MCP-4 and MIP-3a. Other stimuli of interest include: TGFbeta, IL-5, II-10, IL-9, Tryptase, GM-CSF, II-17, CD40L, Histamine, IgE stimulated Mast Cells, LTB4 stimulated neutrophils, and PBMC stimulated with LPS or SAg.
Each screened compound is scored according to its modulation of the selected readout parameters. Compounds receive a positive score (score of 1) or negative score (score of 0) for each readout parameter set forth in Table 2 that is modulated in the desired direction. […] Parameters may be penalized by making the positive score a −1 for parameters where regulation is opposite to the desired direction.
Cell culture. Human umbilical vein endothelial cells (HUVEC) were pooled from multiple donors, cultured according to standard methods, and plated into microtiter plates at passage 4. Cell culture medium for all systems containing HUVEC included hydrocortisone. Coronary artery smooth muscle cells (CASM3C) and umbilical artery smooth muscle cells (HSM3C) were cultured according to standard procedures. Peripheral blood mononuclear cells (PBMC) were prepared from buffy coats from normal human donors according to standard methods. Monocyte-derived macrophages were differentiated in the presence of M-CSF for 7 d according to standard procedures. Human dermal fibroblasts were pooled from 3 donors, cultured according to standard methods, and plated confluent 24 h before stimulation. Cell culture medium for all systems containing fibroblasts and keratinocytes contained low hydrocortisone. Epidermal keratinocytes and bronchial epithelial cells from 3 donors were cultured according to standard procedures and pooled when plated into microtiter plates.

Row | Compound | MMP-3 score | PAI-1 score | MMP-1 score | uPA score
1 | CCc1oc2ccccc2c1C(=O)c1cc(Br)c(O)c(Br)c1 [Benzbromarone] | 1 | 0 | 0 | 0
2 | O=c1cc(-c2ccc(O)c(O)c2)oc2cc(O)cc(O)c12 [Luteolin] | 0 | 1 | 0 | 0
3 | CCCCN(CCCC)CCC(O)c1cc2c(Cl)cc(Cl)cc2c2cc(C(F)(F)F)ccc12 (stereo not drawn) [Halofantrine] | 0 | 1 | 0 | 0
4 | Fc1ccc(C(OCCN2CCN(CCCc3ccccc3)CC2)c2ccc(F)cc2)cc1 [GBR 12909] | 0 | 0 | 0 | 0
5 | COc1cc2c(c(OC)c1OC)-c1ccc(OC)c(=O)cc1[C@@H](NC(C)=O)CC2 [Colchicine] | 0 | 0 | 0 | 0
6 | CCN(CC)CCNc1ccc(CO)c2sc3ccccc3c(=O)c12 [Hycanthone] | 0 | 0 | 0 | 0
7 | C[C@]12C=CC(=O)C=C1CC[C@@H]1[C@@H]2[C@@H](O)C[C@@]2(C)[C@H]1CC[C@]2(O)C(=O)CO [Prednisolone] | 0 | 0 | 0 | 0
8 | Cc1c(Cl)cccc1Nc1ccccc1C(=O)O [Tolfenamic Acid] | 1 | 1 | 0 | 0
9 | (R)-(−)-Apomorphine | 0 | 0 | 0 | 0
10 | Cn1cnc([N+](=O)[O-])c1Sc1ncnc2nc[nH]c12 [Azathioprine] | 0 | 0 | 0 | 0
11 | O=C(O)c1ccccc1Nc1cccc(C(F)(F)F)c1 [Flufenamic Acid] | 0 | 1 | 0 | 0
12 | Antimycin A | 0 | 0 | 0 | 1
13 | COc1cc(-c2ccc(=O)[nH]n2)ccc1OC(F)F [Zardaverine] | 0 | 1 | 0 | 0
14 | C=C1CC[C@H](O)C/C1=C/C=C1\CCC[C@]2(C)[C@@H]([C@H](C)/C=C/[C@H](C)C(C)C)CC[C@@H]12 [Calciferol] | 0 | 0 | 0 | 1
15 | COC(=O)Nc1nc2ccc(SC(C)C)cc2[nH]1 [Methiazole] | 1 | 1 | 0 | 0
